One may read the IC50 as the concentration that inhibits the measured activity by half. High values mean weaker potency in that assay, low ones greater potency in that assay.

The record followed here is ChEMBL document CHEMBL2331141, “Synthesis, characterization, screening and docking analysis of 4-anilinoquinazoline derivatives as tyrosine kinase inhibitors” (Eur J Med Chem, 2013).

Test [1] addresses T1, Epidermal growth factor receptor (Homo sapiens, UniProt P00533). The test is described as follows: Inhibition of EGFR (unknown origin) using biotinylated-PTP1B (Tyr66) as substrate incubated for 5 mins prior to substrate addition measured after 1 hr by ELISA. Background: An ELISA detects its analyte on a solid surface through an enzyme-linked reagent.
Test [2] has as its target T1, Epidermal growth factor receptor. The test is described as follows: Inhibition of EGFR (unknown origin).

T1 sequence (P00533 whole entry): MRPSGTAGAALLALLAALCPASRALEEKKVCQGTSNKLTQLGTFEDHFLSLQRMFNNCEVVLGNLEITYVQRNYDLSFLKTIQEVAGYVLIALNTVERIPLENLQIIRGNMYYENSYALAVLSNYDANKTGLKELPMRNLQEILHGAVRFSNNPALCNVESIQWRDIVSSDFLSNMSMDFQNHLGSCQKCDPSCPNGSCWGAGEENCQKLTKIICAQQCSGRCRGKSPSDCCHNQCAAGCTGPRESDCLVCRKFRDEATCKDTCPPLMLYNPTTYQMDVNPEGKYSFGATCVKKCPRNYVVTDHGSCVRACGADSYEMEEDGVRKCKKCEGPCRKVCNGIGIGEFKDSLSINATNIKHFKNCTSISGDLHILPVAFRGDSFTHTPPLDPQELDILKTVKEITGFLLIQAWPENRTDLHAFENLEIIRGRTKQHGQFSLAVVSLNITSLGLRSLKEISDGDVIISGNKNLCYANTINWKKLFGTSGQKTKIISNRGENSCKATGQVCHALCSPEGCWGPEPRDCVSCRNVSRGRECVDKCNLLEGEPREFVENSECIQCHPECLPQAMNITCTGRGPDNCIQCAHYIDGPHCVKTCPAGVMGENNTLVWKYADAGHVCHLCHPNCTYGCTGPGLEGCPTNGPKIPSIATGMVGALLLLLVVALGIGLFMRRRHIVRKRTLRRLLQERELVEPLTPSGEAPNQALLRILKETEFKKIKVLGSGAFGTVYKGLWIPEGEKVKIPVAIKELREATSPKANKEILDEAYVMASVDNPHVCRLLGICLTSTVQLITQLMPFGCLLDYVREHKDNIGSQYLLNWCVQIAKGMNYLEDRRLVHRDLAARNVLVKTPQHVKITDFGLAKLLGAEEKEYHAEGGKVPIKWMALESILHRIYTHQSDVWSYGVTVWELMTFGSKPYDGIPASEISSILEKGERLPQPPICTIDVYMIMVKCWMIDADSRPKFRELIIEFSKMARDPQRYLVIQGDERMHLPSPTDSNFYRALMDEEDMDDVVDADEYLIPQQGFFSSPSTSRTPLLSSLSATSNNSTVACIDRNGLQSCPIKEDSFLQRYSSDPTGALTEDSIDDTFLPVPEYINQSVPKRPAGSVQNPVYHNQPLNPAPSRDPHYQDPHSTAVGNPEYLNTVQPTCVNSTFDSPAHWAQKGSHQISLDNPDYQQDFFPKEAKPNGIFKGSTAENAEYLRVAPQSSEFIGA

`COc1cc2ncnc(Nc3cccc(C#N)c3)c2cc1OC` gave an IC50 in test [1] of 413 nM.

In turn, `COc1cc2ncnc(Nc3cccc(SC)c3)c2cc1OC` gave an IC50 in test [1] of 127 nM.

For the molecule `COc1cc2ncnc(Nc3ccc(C(C)(F)F)cc3)c2cc1OC`, the IC50 in test [2] turned out to be 4.7 µM.

`COc1cc2ncnc(Nc3cccc(-c4ccccc4)c3)c2cc1OC`: in test [1], half-maximal inhibition (IC50) required 127 nM.

Molecule `COc1cc2ncnc(Nc3cccc(C(F)(F)F)c3)c2cc1OC` registered a concentration for half-maximal inhibition (IC50) in test [2] of 0.015 µM.

For the molecule `COc1cc2ncnc(Nc3ccc(F)c(Cl)c3)c2cc1OCCNCCN`, in test [1], the concentration for half-maximal inhibition (IC50) was determined as 12.1 nM.

`COc1cc2ncnc(Nc3ccc(F)c(Cl)c3)c2cc1OCCCNCCN` came in with an IC50 in test [1] of 13.6 nM. On to `COc1cc2ncnc(Nc3ccccc3)c2cc1OC`, for which the IC50 in test [1] was found to be 201 nM. Turning to `COc1cc2ncnc(Nc3ccccc3C(F)(F)F)c2cc1OC`, in test [2], the IC50 amounted to 10 µM. `COc1cc2ncnc(Nc3ccc(F)c(Cl)c3)c2cc1OCCO` had an IC50 in test [1] of 63.4 nM.
